{"source": "patent US10048272B2", "about": "“High-affinity small molecule formylpeptide receptor ligands from screening of combinatorial mixture-based libraries” (STC.UNM, priority 2013, dated 2018)", "key": {"FPR2 [1]": {"target": "T1, FPR2 (Homo sapiens, UniProt P25090)", "T1 sequence (P25090 1-351)": "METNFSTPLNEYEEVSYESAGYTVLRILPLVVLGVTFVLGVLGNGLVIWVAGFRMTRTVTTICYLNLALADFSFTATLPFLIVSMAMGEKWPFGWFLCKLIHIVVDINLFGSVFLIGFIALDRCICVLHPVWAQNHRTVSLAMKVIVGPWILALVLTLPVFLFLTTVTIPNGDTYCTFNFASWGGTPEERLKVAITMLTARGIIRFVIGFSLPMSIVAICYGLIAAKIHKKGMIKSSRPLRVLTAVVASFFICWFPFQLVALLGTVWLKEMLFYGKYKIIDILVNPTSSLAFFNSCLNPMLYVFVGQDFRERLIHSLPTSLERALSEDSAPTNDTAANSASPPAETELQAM", "conditions": "literature; cited from earlier work"}, "FPR1 [2]": {"target": "T2, FPR1 (Homo sapiens, UniProt P21462)", "T2 sequence (P21462 1-350)": "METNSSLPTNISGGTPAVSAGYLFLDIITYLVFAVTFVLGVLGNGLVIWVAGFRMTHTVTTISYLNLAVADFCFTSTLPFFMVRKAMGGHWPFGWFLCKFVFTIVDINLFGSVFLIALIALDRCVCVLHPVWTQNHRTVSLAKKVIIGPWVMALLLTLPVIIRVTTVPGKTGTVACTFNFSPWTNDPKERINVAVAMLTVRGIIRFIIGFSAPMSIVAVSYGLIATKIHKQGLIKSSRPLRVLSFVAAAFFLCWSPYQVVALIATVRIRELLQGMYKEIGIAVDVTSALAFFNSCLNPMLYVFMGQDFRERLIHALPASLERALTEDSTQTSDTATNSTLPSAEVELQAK", "assay": "Duplex flow cytometry receptor binding assay (WPep-FITC fluorescent ligand competition), U937/FPR1 cells", "design": "expressed in transfected cells; host or cells: U937 cells (U937/FPR1)", "conditions": "for Ki: WPep-FITC displacement, U937/FPR1 cells", "protocol": "Flow cytometry receptor binding assay. The assay was performed in a “duplex” format in which U937/FPR1 cells were tested together with RBL/FPR2 cells as previously described (Young, et al., 2009)(PubChem Summary AIDs 805 and 1202). The FPR1-expressing cells were stained with a red-fluorescent dye, FuraRed™ allowing them to be distinguished from the FPR2-expressing cells during flow cytometric analysis. A fluorescein label was conjugated to the lysine residue of the WPep peptide (WKYMVm) to produce a fluorescent ligand (WPep-FITC) that bound both FPR1 and FPR2. […] Assays were performed in polystyrene 384-well plates with small volume wells (Greiner #784101). Additions to wells were in sequence as follows: (1) test compounds and control reagents (5 ul/well); (2) the combined suspension of U937/FPR1 and RBL/FPR2 cells (5 ul/well) and; (3) (after 30 min, 4° C. incubation) WPep-FITC (5 ul/well). After an additional 45 min, 4° C. incubation, plates were immediately analyzed using flow cytometry. The assay response range was defined by replicate control wells containing unlabeled receptor-blocking peptide (positive control) or buffer (negative control). fMLFF was used as the FPR1-blocking peptide and unlabeled WPep as the FPR2-blocking peptide. Final concentration of WPep-FITC was 5 nM. The assay was homogeneous in that cells, compounds and fluorescent peptide were added in sequence and the wells subsequently analyzed without intervening wash steps. The HyperCyt™ high-throughput flow-cytometry platform (Kuckuck, et al., 2001; Ramirez, et al., 2003) was used to sequentially sample cells from wells of 384-well microplates (2 ul/sample) for presentation to a CyAn flow cytometer (Beckman-Coulter) at a rate of 40 samples/min. Fluorescence was excited at 488 nm and detected with 530/40 and 680/30 optical bandpass filters for WPep-FITC and FuraRed™, respectively. Test compound inhibition of fluorescent peptide binding was calculated as percent inhibition. WPep-FITC fluorescence intensity measurements of cells from control wells were also used to calculate Z′ factors (Zhang, et al., 1999), which ranged between 0.6 and 0.8 for each assay.\nDose response determinations. Fluorescent ligand competition dose response assays were performed essentially as described for single concentration assays except that test compounds were initially tested at a starting concentration of 10 mM in DMSO and serially diluted 1:3 to produce final concentration ranging from 67 μM to 0.1 nM. The resulting ligand competition curves were fitted by Prism software (GraphPad Software, Inc., San Diego, Calif.) using nonlinear least-squares regression in sigmoidal dose response model with variable slope, also known as the four parameter logistic equation. […]\n(§1) FPR expression ranged from 100,000 to 200,000 receptors per cell in different assays as determined by comparison to standard curves generated with Fluorescein Reference Standard Microbeads (Bangs Laboratories, Fishers, Ind.). […] To account for effects of possible ligand depletion at the higher receptor concentrations, Ki values were calculated from IC50 estimates by the method of Munson and Rodbard (Munson and Rodbard, 1988): Ki=Kd×[y0/(y0+2]+IC50/{1+[p*×(y0+2)]/[2×Kd×(y0+1)]+y0} in which y0 is the initial bound-to-free concentration ratio for the fluorescent ligand, p* is the added concentration of fluorescent ligand and Kd is the dissociation constant for the fluorescent ligand."}, "FPR2 [3]": {"target": "T1, FPR2", "assay": "Intracellular calcium mobilization assay, FPR2 cells (agonist and antagonist determinations)", "type": "cell-based", "design": "expressed in transfected cells", "conditions": "for Functional activity in FPR2-mediated intracellular Ca2+ response (agonist/antagonist): result in words", "protocol": "(§2) Intracellular calcium mobilization assays. Intracellular calcium mobilization assays were performed as previously described with modifications (Edwards, et al., 2005). Briefly, cells were collected by centrifugation (200×g, 10 min, 24° C.) and suspended at 10^6/ml in 1 ml PBS (Ca^2+, Mg^2+ free). Cells were added with 210 nM Fluo4 (FPR2 cells) or with a combination of 210 nM Fluo4 and 210 nM FuraRed (FPR1 cells). After incubation for 30 min at 24° C. cells were washed with 1 ml PBS, suspended in 1 ml TCM (RPMI, 10% FBS) and stored in the dark at 24° C. until used in assays. For test compound agonist determinations, 50 μL from FPR1 and FPR2 cell suspensions were combined, analyzed 10 s in an Accuri C6 flow cytometer (BD Biosciences) to determine baseline Fluo4 fluorescence in the FL1 channel (530/20 nm), then added with 50 μL containing test compounds and analyzed an additional 110 s to evaluate changes in Fluo4 fluorescence intensity. During the analysis FPR1 cells were distinguished from FPR2 cells on the basis of FuraRed fluorescence intensity detected in the FL3 channel ([…]). The innate calcium response was quantified as the maximum % of cells that exceeded the baseline Fluo4 fluorescence intensity over the course of the analysis. These responses were normalized to the innate calcium responses observed in the presence of 11 nM control peptides: 4pep for FPR1 cells and Wpep for FPR2 cells as follows: Normalized Calcium Response (%)=100×innate response % to test compound/innate response % to control peptide.\n(§3) For test compound antagonist determinations, 10 μL test compound was added to the combined FPR1/FPR2 cell mixture and incubated 5 min at 24° C. prior to assessing the innate calcium response to subsequent addition of fMLFF or Wpep peptide. In these determinations, fMLFF and Wpep were used at concentrations that produced 90% of the maximal intracellular calcium response (EC90), and responses were normalized with respect to the innate response to each control peptide observed in the absence of test compounds.\n(§4) Intracellular Ca^2+ dose response curves were also fitted using nonlinear least-squares regression in a sigmoidal dose response model with variable slope. Curve fit statistics were used to determine the concentration of added test compound competitor that inhibited Ca^2+ responses by 50 percent (IC50) for antagonists or effected increases in Ca^2+ response by 50% (EC50) for agonists. Since responses were normalized relative to control stimuli the top and bottom of the fitted curves were fixed at 100 and 0."}, "FPR2 [4]": {"target": "T1, FPR2", "assay": "Duplex flow cytometry receptor binding assay (WPep-FITC fluorescent ligand competition), RBL/FPR2 cells", "design": "expressed in transfected cells", "conditions": "for FPR2 selectivity: FPR2 over FPR1", "protocol": "Flow cytometry receptor binding assay. The assay was performed in a “duplex” format in which U937/FPR1 cells were tested together with RBL/FPR2 cells as previously described (Young, et al., 2009)(PubChem Summary AIDs 805 and 1202). The FPR1-expressing cells were stained with a red-fluorescent dye, FuraRed™ allowing them to be distinguished from the FPR2-expressing cells during flow cytometric analysis. A fluorescein label was conjugated to the lysine residue of the WPep peptide (WKYMVm) to produce a fluorescent ligand (WPep-FITC) that bound both FPR1 and FPR2. […] Assays were performed in polystyrene 384-well plates with small volume wells (Greiner #784101). Additions to wells were in sequence as follows: (1) test compounds and control reagents (5 ul/well); (2) the combined suspension of U937/FPR1 and RBL/FPR2 cells (5 ul/well) and; (3) (after 30 min, 4° C. incubation) WPep-FITC (5 ul/well). After an additional 45 min, 4° C. incubation, plates were immediately analyzed using flow cytometry. The assay response range was defined by replicate control wells containing unlabeled receptor-blocking peptide (positive control) or buffer (negative control). fMLFF was used as the FPR1-blocking peptide and unlabeled WPep as the FPR2-blocking peptide. Final concentration of WPep-FITC was 5 nM. The assay was homogeneous in that cells, compounds and fluorescent peptide were added in sequence and the wells subsequently analyzed without intervening wash steps. […] Fluorescence was excited at 488 nm and detected with 530/40 and 680/30 optical bandpass filters for WPep-FITC and FuraRed™, respectively. Test compound inhibition of fluorescent peptide binding was calculated as percent inhibition. WPep-FITC fluorescence intensity measurements of cells from control wells were also used to calculate Z′ factors (Zhang, et al., 1999), which ranged between 0.6 and 0.8 for each assay. […]\nas §1"}, "FPR1 [5]": {"target": "T2, FPR1", "conditions": "literature; cited from earlier work"}, "FPR1 [6]": {"target": "T2, FPR1", "assay": "Intracellular calcium mobilization assay, FPR1 cells (agonist and antagonist determinations)", "type": "cell-based", "design": "expressed in transfected cells; host or cells: U937 cells (U937/FPR1)", "conditions": "for Functional activity in FPR1-mediated intracellular Ca2+ response (agonist/antagonist): result in words", "protocol": "as §2, §3, §4"}, "[7]": {"conditions": "second compound of the printed pair relative to the first (1754-26 to 1754-56)"}}, "note": "“Also recorded” adds a separate entry of the source.", "data": [{"molecule": "CCCCOc1ccc(C(=O)NN2C(=O)c3ccccc3NC2c2ccc(OC)cc2)cc1", "note": "(centres unmarked) [Quin-C1]", "values": [{"measurement": "Functional activity at FPR2 (in words)", "setting": "FPR2 [1]", "value": "agonist"}]}, {"molecule": "CC(C)[C@H]1CNC(=O)C(=O)N1C[C@@H]1CCCN1C[C@@H](Cc1ccc2ccccc2c1)N1C[C@@H](Cc2ccc(O)cc2)N(CC2CCCCC2)C(=O)C1=O", "note": "[1754-31]", "values": [{"measurement": "Receptor selectivity, FPR1 versus FPR2, in ligand competition binding (in words)", "setting": "FPR1 [2]", "value": "FPR2 selective"}, {"measurement": "Ki", "setting": "FPR1 [2]", "value": "> 10000", "unit": "nM"}, {"measurement": "IC50", "setting": "FPR2 [3]; antagonist determination, Wpep at EC90, read-out: IC50, intracellular Ca2+ response, FPR2 antagonist", "value": 81, "unit": "nM"}, {"measurement": "Functional activity in FPR2-mediated intracellular Ca2+ response (agonist/antagonist)", "setting": "FPR2 [3]", "value": "antagonist"}, {"measurement": "Ki", "setting": "FPR2 [4]; WPep-FITC displacement, RBL/FPR2 cells", "value": 1, "unit": "nM"}, {"measurement": "FPR2 selectivity", "setting": "FPR2 [4]; as printed in b133 ('nM Ki')", "value": "> 10,000 nM"}, {"measurement": "FPR2 selectivity", "setting": "FPR2 [4]; no unit", "value": "> 10,000"}]}, {"molecule": "CCCCOc1ccc(C(=O)NN2C(=O)c3ccccc3NC2c2ccc(O)cc2)cc1", "note": "(centres unmarked) [Quin-C7]", "values": [{"measurement": "Functional activity at FPR1 (in words)", "setting": "FPR1 [5]", "value": "antagonist"}]}, {"molecule": "CCCC[C@H]1CNC(=O)C(=O)N1C[C@@H]1CCCN1C[C@@H](CCC)N1C[C@@H](Cc2ccc(O)cc2)N(CCc2ccc(-c3ccccc3)cc2)C(=O)C1=O", "note": "[1754-56]", "values": [{"measurement": "Receptor selectivity, FPR1 versus FPR2, in ligand competition binding (in words)", "setting": "FPR1 [2]", "value": "FPR1 selective"}, {"measurement": "Increase of activity for FPR1 (potency difference, pKi)", "setting": "FPR1 [2]; [7]", "value": 1.36, "unit": "log units"}, {"measurement": "EC50, FPR2-mediated Ca2+ response, agonist (in words)", "setting": "FPR2 [3]; matched the Ki value of the ligand displacement assay", "value": "low micromolar"}, {"measurement": "Response efficacy (fitted Top), Ca2+ response in FPR2 cells", "setting": "FPR2 [3]; maximum response relative to control peptide Wpep (WKYMVm)", "value": 98, "unit": "%"}, {"measurement": "Functional activity in FPR2-mediated intracellular Ca2+ response (agonist/antagonist)", "setting": "FPR2 [3]", "value": "agonist"}, {"measurement": "Functional activity in FPR1-mediated intracellular Ca2+ response (agonist/antagonist)", "setting": "FPR1 [6]", "value": "antagonist"}, {"measurement": "Decrease of activity for FPR2 (potency difference, pKi)", "setting": "FPR2 [4]; [7]", "value": 1.28, "unit": "log units"}]}, {"molecule": "CCCC[C@H](CN(C(=O)Nc1ccccc1)[C@@H](C)CNC(=O)Nc1ccccc1)N(CCCCc1ccccc1)C(=O)Nc1ccccc1", "note": "[1753-103]", "values": [{"measurement": "Ki", "setting": "FPR1 [2]", "value": 4, "unit": "nM"}, {"measurement": "EC50", "setting": "FPR1 [6]; agonist determination, read-out: EC50, intracellular Ca2+ response, FPR1 agonist", "value": 131, "unit": "nM"}, {"measurement": "Response efficacy (fitted Top), Ca2+ response in FPR1 cells", "setting": "FPR1 [6]; maximum response relative to control peptide 4pep (fMLFF)", "value": 78, "unit": "%"}, {"measurement": "Functional activity in FPR1-mediated intracellular Ca2+ response (agonist/antagonist)", "setting": "FPR1 [6]", "value": "selective partial agonists; also recorded: agonist"}]}]}
